Data: patent US4353917A, “Amino derivatives of 2-methyl-5-(2-hydroxystyryl)-1,3,4-thiadiazole, their preparation, and formulations containing these compounds” (BASF Aktiengesellschaft, priority 1979, dated 1982)

Columns and labels:
[1] = target: T1, cardiac β1 -receptors (Felis catus, UniProt Q9TST6); assay: β-Sympatholytic action: inhibition of isoproterenol-induced tachycardia in narcotized cats; type: in vivo; settings: for β1 -Sympatholytic action R.A. (relative activity): Propranolol = 1.00, cats, intravenous; for ED50: cat, cats under hexobarbital narcosis, intravenous administration, read-out: β1 -Sympatholytic action ED 50%: dose which inhibits the isoproterenol-induced tachycardia by 50%; for blocking dose for cardiac β1 -receptors: times lower than that of propranolol: versus comparative substance propranolol
T1 construct: pulse rate of narcotized cats (weighing 2-4 kg); from tissue; host or cells: heart of the living cat (in vivo, hexobarbital narcosis)
Method: The β-sympatholytic action was tested on cats. […] The following methods were employed in the tests:
(§1) Isoproterenol (1 μg/kg, administered intravenously) causes increases, averaging 40%, in the pulse rate of narcotized cats (weighing 2-4 kg). β-Sympatholytic agents inhibit such tachycardia. Isoproterenol was administered before, and 10 and 40 minutes after, the intravenous administration of the test substances. Linear relationships exist between the logarithms of the administered doses (mg/kg) of the test substances and the inhibition of isoproterenol-induced tachycardia (%).
^(1) Inhibition of isoproterenolinduced tachycardia. Cats under
hexobarbital narcosis. Intravenous administration.
^(2) Dose (mg/kg), which inhibits the isoproterenolinduced tachycardi
^(3) Relative activity.

[2] = system: NMRI mice; assay: in vivo; settings: mouse
[3] = in vivo; settings: mouse; for selectivity ratio: footnote (5) formula is a drawing, read-out: Therapeutic range; for LD50: ip, mice, intraperitoneal administration, read-out: Acute toxicity LD 50
[4] = system: pulse rate of narcotized cats; assay: Increase in pulse rate of narcotized cats by isoproterenol; type: in vivo; settings: 1 μg/kg, intravenously; narcotized cats (2-4 kg); average
Method: as §1, with “(%). From these relationships, the doses (ED 50%) which inhibit the isoproterenol-induced tachycardia by 50% are determined.” for “(%).”

T1 sequence (Q9TST6 whole entry): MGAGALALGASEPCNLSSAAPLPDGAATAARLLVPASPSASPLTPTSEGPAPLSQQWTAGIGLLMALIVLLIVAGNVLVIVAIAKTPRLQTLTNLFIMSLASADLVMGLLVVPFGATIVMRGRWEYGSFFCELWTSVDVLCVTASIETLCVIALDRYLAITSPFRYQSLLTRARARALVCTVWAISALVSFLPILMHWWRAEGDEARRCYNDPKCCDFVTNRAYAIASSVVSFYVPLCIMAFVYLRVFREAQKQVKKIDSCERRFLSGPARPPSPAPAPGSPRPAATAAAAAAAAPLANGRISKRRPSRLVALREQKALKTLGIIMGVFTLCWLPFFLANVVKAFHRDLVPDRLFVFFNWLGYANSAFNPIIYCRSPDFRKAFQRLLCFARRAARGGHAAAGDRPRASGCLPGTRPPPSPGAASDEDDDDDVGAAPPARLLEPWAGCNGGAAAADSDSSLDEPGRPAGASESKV

In the case of `COc1ccc(CCNCC(O)COc2ccccc2C=Cc2nnc(C)s2)cc1OC` (stereo not shown) [Example 2], the “β1 -Sympatholytic action R.A. (relative activity)” value [1] is reported as 5.64, the ED50 [1] is reported as 0.025 mg/kg and the “blocking dose for cardiac β1 -receptors: times lower than that of propranolol” value [1] is reported as 5.6 times. For the same compound, the “therapeutic range: times greater than for propranolol” value [2] was 4.2 times, the selectivity ratio [3] was 3250 and the LD50 [3] was 81.3 mg/kg.

With `Cc1nnc(C=Cc2ccccc2OCC(O)CNC(C)CCc2ccc(O)cc2)s1` (stereo not shown) [Example 4] the “β1 -Sympatholytic action R.A. (relative activity)” value [1] was 6.71, the ED50 [1] was 0.021 mg/kg and the “blocking dose for cardiac β1 -receptors: times lower than that of propranolol” value [1] was 6.7 times. For the same compound, the “therapeutic range: times greater than for propranolol” value [2] was 2.6 times, the selectivity ratio [3] was 1990 and the LD50 [3] was 41.7 mg/kg.

In the case of `CC(C)NCC(O)c1ccc(O)c(O)c1` (stereo not shown) [Isoproterenol], the “increase in the pulse rate” value [4] is reported as about 40%.
